{"source": "paper PMC10590383", "about": "“Repurposing conformational changes in ANL superfamily enzymes to rapidly generate biosensors for organic and amino acids” (Nature Communications, 2023)", "assay": "Dose–response curve of purified […]s with histidine", "format": "biochemical", "design": "key to Dose-response, AVE of Repeat 1-3 (Fig. 3 k): normalized ΔF/F0 (fluorescence change over baseline)", "experimental": "Fig. 3 Dose–response curves and fluorescence spectrums of […]s. a, c, e, g, i, k Dose–response curve of purified […]s with increasing concentrations of ligand in 100 mM Tris-HCl buffer (pH=7.5). The normalized ΔF/F0 value increased after ligand binding. All data shown are mean ± S.D. (n = 3 biologically independent samples). b, d, f, h, j, l The fluorescence spectra of […]s changed as the ligand concentration increased. All data shown are mean ± S.D. (n = 3 biologically independent samples). Source data are provided as a Source data file.\nThe study conducted dose–response curve, substrate specificity, and fluorescent spectrum analyses in 100-mM Tris buffer (pH = 7.5), while pH stability experiments were performed in 100-mM Tris buffer at three different pH values (6.5, 7.5, and 8.5) at room temperature. […] protein at a concentration of 0.75 μM, various small molecule concentrations, 1 mM ATP, and 2.5 mM MgCl2 were used in the experiments. Fluorescent signals were detected using a Microplate Reader (Synergy H4, Bio Tek) at an excitation/emission wavelength of 460 nm/510 nm or 480 nm/510 nm. The dose-response curve was determined immediately after the addition of the analyte. The total duration of the measurement was 15 min, with readings taken at one-minute intervals. The dose-response curve was plotted using the fluorescence values obtained after achieving stability in the fluorescence signal. The dose-response curves were fitted using the logistic model LOGISTIC5 available in Origin 2021, which could provide a more adequate fit to asymmetric dose-response data[62],[63]. Excitation spectra were scanned from 300 to 540 nm with a step size of 5 nm, and the emission wavelength was set to 560 nm. Emission spectra were scanned from 470 to 700 nm with a step size of 5 nm, and the excitation wavelength was set to 450 nm. The thermal stability of […] was analyzed using the UNcle multifunctional protein stability analysis system. Measurements were performed in 20 mM MOPS buffer with 2 mM DTT at a sample concentration of 1 mg/mL. Absolute fluorescence quantum yields were measured using an absolute photoluminescence quantum yield spectrometer (FS5, Edinburgh). […]\nSupplementary Fig. 2 Dose–response curves and fl uorescen ce spectr ums of GEC FINDERs. a and c, Dose– re spons e curves of puri fi ed GECF INDE R-P he1 and 2 with increas ing concen tra tions of phenylalanine (1 nM to 100 μM). The norm alized ΔF/F 0 value increas ed aft er phenylalanine binding (4 60 nm excita tion) . b and d, The fl uore scen ce spect ra of GECF IN DER-P he1 and 2 changed as the phe nylalanine concen tra tion incre ased fro m 1 nM to 100 μM. e and g, Dose–re spon se curv es of puri fied GECF IN DER-Il e1 and 2 with increas ing concen tra tio ns of isoleucine (50 nM to 10 mM). The norm alized ΔF/F 0 value increas ed aft er isoleucine binding (4 80 nm excita tion) . f and h, The fl uore scen ce spect ra of GECF INDE R-Il e1 and 2 change d as the isoleucine concen tration increas ed fro m 0.5 μM to 10 mM. i, Dose–re spon se curv e of puri fi ed GECF INDE R-H is1 with increas ing concen tra tio ns of histid ine (5 nM to 1 mM). The Norm alized ΔF/F 0 increas ed aft er histidine binding (480 nm excita tion). j, The fl uore scen ce spect ra of GECFIN DER-H is1 changed as the histid ine concen tra tion increas ed fro m 5 nM to 1 mM. k, Diffe re nce in fl uore scen ce intensity of GECF INDE R-b enzoic aci d in the pre sence of 10 µM benzoic aci d compare d to the cont ro l (0 µM benzoic aci d). […] (n=3 biological ly independent samples). *p ≤ 0.05, ***p ≤ 0.001, ****p ≤ 0.0001, and n.s. indicat ed no signifi can t diffe re nce (S tude nt’s two-t aile d t-t est). Source data are provi ded as a Source Data file . […]", "data": [{"smiles": "N[C@@H](Cc1cnc[nH]1)C(=O)O", "note": "[His]", "values": [{"measurement": "Dose-response, AVE of Repeat 1-3 (Fig. 3 k)", "setting": "His 0.005 μM", "result": "-4.366e-17"}, {"measurement": "Dose-response, AVE of Repeat 1-3 (Fig. 3 k)", "setting": "His 0.01 μM", "result": 0.01906}, {"measurement": "Dose-response, AVE of Repeat 1-3 (Fig. 3 k)", "setting": "His 0.05 μM", "result": 0.01899}, {"measurement": "Dose-response, AVE of Repeat 1-3 (Fig. 3 k)", "setting": "His 0.5 μM", "result": 0.05174}, {"measurement": "Dose-response, AVE of Repeat 1-3 (Fig. 3 k)", "setting": "His 5 μM", "result": 0.1739}, {"measurement": "Dose-response, AVE of Repeat 1-3 (Fig. 3 k)", "setting": "His 10 μM", "result": 0.234}, {"measurement": "Dose-response, AVE of Repeat 1-3 (Fig. 3 k)", "setting": "His 25 μM", "result": 0.2903}, {"measurement": "Dose-response, AVE of Repeat 1-3 (Fig. 3 k)", "setting": "His 50 μM", "result": 0.3383}, {"measurement": "Dose-response, AVE of Repeat 1-3 (Fig. 3 k)", "setting": "His 100 μM", "result": 0.377}, {"measurement": "Dose-response, AVE of Repeat 1-3 (Fig. 3 k)", "setting": "His 500 μM", "result": 0.4545}, {"measurement": "Dose-response, AVE of Repeat 1-3 (Fig. 3 k)", "setting": "His 750 μM", "result": 0.4382}, {"measurement": "Dose-response, AVE of Repeat 1-3 (Fig. 3 k)", "setting": "His 1000 μM", "result": 0.4348}, {"measurement": "fluorescence intensity, AVE of 3 repeats", "setting": "Supplementary Fig. 3 h, His 0.75 mM", "result": 10877}]}]}
